The values below come from patent US9499510B2, “Pro-drug compounds” (Proximagen Limited, priority 2012, dated 2016).

Where a name gives a salt, the structure may show the parent alone. A value given as a limit tells only on which side of the number the result lay.

Data set [1] in a line: Solubility in aqueous solution (pH 2 to 10). The format is physicochemical. An excerpt: In an embodiment, prodrugs of the present invention are suitable for oral administration. The skilled person understands that the pH of the gastrointestinal tract changes along its length. For example, the stomach has a pH of around pH 1.5 and the GI tract after the stomach has a pH of around 5 to 7.5. For more detail see, for example, Measurement of gastrointestinal pH profiles in normal ambulant human subjects, Gut. 1988 August; 29(8): 1035-1041. Improved solubility is expected to result in improved absorption, and therefore improved oral bioavailability. Thus improved solubility at any pH value between around pH 1.5 to 8 is expected to improve oral bioavailability. Compounds of the invention were assessed for solubility in aqueous solutions having a pH of from 2 to 10. In an embodiment prodrugs of the invention have a solubility of >0.5 mg/mL in an aqueous solution having a pH of from 2 to 10, including from 2 to 8. In an embodiment prodrugs have a solubility of >5.0 mg/mL, or >10.0 mg/mL, >100.0 mg/mL, or >200.0 mg/mL in an aqueous solution having a pH of from 2 to 10, including from 2 to 8. In an embodiment the prodrugs have the aforementioned aqueous solubility at a pH within the range of from 4 to 8, or from 6 to 8.
In an embodiment, prodrugs of the invention are administered intravenously. High prodrug solubility is advantageous in order to reduce the volume of solution administered to the patient, and to reduce the risk of damage to the circulatory system. Solubility in an aqueous solution having a pH of from 2 to 10 of >10 mg/mL is preferred. Yet more preferred is solubility in an aqueous solution having a pH of from 2 to 10 of >30 mg/mL or >100.0 mg/mL. Yet more preferred is solubility in an aqueous solution having a pH of from 2 to 10 of >200.0 mg/mL. The solubility is measured in an aqueous solution having a pH of from 2 to 10, which pH range is advantageous for intravenous prodrug delivery. See, for example, A guide on intravenous drug compatibilities based on their pH, Nasser S C et al./Pharmacie Globale (IJCP) 2010, 5 (01)). In an embodiment the prodrugs of the claimed invention have solubility of >10 mg/mL in an aqueous solution having a pH of from 2 to 10. In an embodiment the prodrugs have the aforementioned aqueous solubility at a pH within the range of from 2 to 8, or from 4 to 8, or from 6 to 8. The solubility of the Examples is illustrated in Table 1.

In data set [2] the target is T1, human ether a go-go related gene (hERG) K+ channel (Homo sapiens, UniProt Q12809).
T1 construct: Chinese Hamster Lung cell line stably expressing the full length hERG channel; expressed in transfected cells; host or cells: Chinese Hamster Lung cell line
Description: hERG assay, IonWorks patch clamp electrophysiology. The format is cell-based. The following applies: Chinese Hamster Lung cell line stably expressing hERG; maximum assay concentration 33 uM. How it is done:
Compounds of the invention were tested for inhibition of the human ether a go-go related gene (hERG) K^+ channel using IonWorks patch clamp electrophysiology. 8 Point concentration-response curves were generated on two occasions using 3-fold serial dilutions from the maximum assay concentration (33 uM). Electrophysiological recordings were made from a Chinese Hamster Lung cell line stably expressing the full length hERG channel. Single cell ion currents were measured in the perforated patch clamp configuration (100 ug/mL amphoterocin) at room temperature using an IonWorks Quattro instrument. The internal solution contained 140 mM KCl, 1 mM MgCl2, 1 mM EGTA and 20 mM HEPES and was buffered to pH 7.3. The external solution contained 138 mM NaCl, 2.7 mM KCl, 0.9 mM CaCl2, 0.5 mM MgCl2, 8 mM Na2HPO4 and 1.5 mM KH2PO4, and was buffered to pH 7.3. Cells were clamped at a holding potential of […] for 30 s and then stepped to +40 mV for 1 s. This was followed by a hyperpolarising step of 1 s to […] to evoke the hERG tail current. This sequence was repeated 5 times at a frequency of 0.25 Hz. Currents were measured from the tail step at the 5th pulse, and referenced to the holding current. Compounds were incubated for 6-7 min prior to a second measurement of the hERG signal using an identical pulse train. A minimum of 17 cells were required for each pIC50 curve fit. […]
(hERG is a cardiac potassium channel; its block is linked to QT prolongation.)

T1 sequence (Q12809 whole entry): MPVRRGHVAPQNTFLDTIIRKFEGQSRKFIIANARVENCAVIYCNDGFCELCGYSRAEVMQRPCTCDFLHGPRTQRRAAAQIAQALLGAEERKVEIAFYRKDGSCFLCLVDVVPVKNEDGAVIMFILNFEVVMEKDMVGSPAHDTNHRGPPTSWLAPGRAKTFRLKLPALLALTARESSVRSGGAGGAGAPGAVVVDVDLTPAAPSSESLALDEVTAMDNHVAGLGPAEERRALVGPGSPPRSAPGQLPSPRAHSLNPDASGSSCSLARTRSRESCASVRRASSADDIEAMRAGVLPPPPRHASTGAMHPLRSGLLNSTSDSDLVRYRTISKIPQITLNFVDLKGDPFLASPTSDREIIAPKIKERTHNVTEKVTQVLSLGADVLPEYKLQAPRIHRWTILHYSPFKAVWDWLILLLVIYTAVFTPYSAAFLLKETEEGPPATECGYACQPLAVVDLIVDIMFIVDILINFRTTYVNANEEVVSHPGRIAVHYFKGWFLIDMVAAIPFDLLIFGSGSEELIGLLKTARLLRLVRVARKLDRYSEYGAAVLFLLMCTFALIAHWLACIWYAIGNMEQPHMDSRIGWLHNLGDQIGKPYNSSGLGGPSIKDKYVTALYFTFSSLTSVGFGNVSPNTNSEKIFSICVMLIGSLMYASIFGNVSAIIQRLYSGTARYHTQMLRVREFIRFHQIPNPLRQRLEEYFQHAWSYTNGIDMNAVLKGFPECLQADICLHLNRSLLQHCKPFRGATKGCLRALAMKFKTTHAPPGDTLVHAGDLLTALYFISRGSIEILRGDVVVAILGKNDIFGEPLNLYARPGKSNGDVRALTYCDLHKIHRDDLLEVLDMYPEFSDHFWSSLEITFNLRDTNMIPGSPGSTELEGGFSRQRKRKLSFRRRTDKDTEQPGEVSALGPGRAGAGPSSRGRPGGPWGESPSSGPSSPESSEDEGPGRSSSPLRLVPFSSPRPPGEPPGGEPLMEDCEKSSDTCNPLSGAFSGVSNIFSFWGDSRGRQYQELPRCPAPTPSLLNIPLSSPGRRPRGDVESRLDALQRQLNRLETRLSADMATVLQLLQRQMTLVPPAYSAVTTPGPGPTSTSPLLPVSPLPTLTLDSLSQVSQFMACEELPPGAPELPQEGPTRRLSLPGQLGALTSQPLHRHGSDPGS

What is called solubility is the concentration that dissolves in the medium under given conditions. Read a low solubility as a poorly soluble substance. As for `CC(=O)O[C@H]1[C@@H](NC(=O)c2ccc(F)c(Cl)c2)c2cc(C(C)=O)ccc2OC1(C)C` [Example 3, (3S,4S)-6-Acetyl-4-[(3-chloro-4-fluorobenzene)amido]-2,2-dimethyl-3,4-dihydro-2H-1-benzopyran-3-yl acetate], in data set [1] (pH 3.5, aqueous buffer), the solubility was less than 250 µg/mL.

In the case of `CC(=O)c1ccc2c(c1)[C@H](NC(=O)c1ccc(F)c(Cl)c1)[C@H](OCOC(=O)CN(C)C)C(C)(C)O2` [Example 5, {[(3S,4S)-6-Acetyl-4-[(3-chloro-4-fluorobenzene)amido]-2,2-dimethyl-3,4-dihydro-2H-1-benzopyran-3-yl]oxy}methyl 2-(dimethylamino)acetate], the solubility in data set [1] (aqueous buffer, pH 3.0) was more than 2000 µg/mL.

Molecule `CC(=O)c1ccc2c(c1)[C@H](NC(=O)c1ccc(F)c(Cl)c1)[C@H](OCOP(=O)(O)O)C(C)(C)O2` [Example 8, ({[(3S,4S)-6-Acetyl-4-[(3-chloro-4-fluorobenzene)amido]-2,2-dimethyl-3,4-dihydro-2H-1-benzopyran-3-yl]oxy}methoxy)phosphonic acid diamine] returned a solubility in data set [1] (pH 5.7, aqueous buffer) of more than 200000 µg/mL.

As for `CC(=O)c1ccc2c(c1)[C@H](NC(=O)c1ccc(F)c(Cl)c1)[C@H](OC(=O)CN(C)C)C(C)(C)O2` [Example 2, (3S,4S)-6-Acetyl-4-[(3-chloro-4-fluorobenzene)amido]-2,2-dimethyl-3,4-dihydro-2H-1-benzopyran-3-yl 2-(dimethylamino)acetate hydrochloride], in data set [1] (pH 3.6, aqueous buffer), the solubility is more than 20000 µg/mL.

What is called IC50 is the concentration needed to halve the response being measured. Low values mean greater potency in that assay, high ones weaker potency in that assay. Consider `CC(=O)c1ccc2c(c1)[C@H](NC(=O)c1ccc(F)c(Cl)c1)[C@H](OP(=O)(O)O)C(C)(C)O2` [Example 1, {[(3S,4S)-6-Acetyl-4-[(3-chloro-4-fluorobenzene)amido]-2,2-dimethyl-3,4-dihydro-2H-1-benzopyran-3-yl]oxy}phosphonic acid], for which, in data set [1] (pH 5.7, aqueous buffer), the solubility was more than 50000 µg/mL. The concentration for half-maximal inhibition (IC50) in data set [2] is more than 11 µM.

The molecule `CC(=O)c1ccc2c(c1)[C@H](NC(=O)c1ccc(F)c(Cl)c1)[C@H](OC(=O)CNC(C)C)C(C)(C)O2.Cl` [Example 11, (3S,4S)-6-Acetyl-4-[(3-chloro-4-fluorobenzene)amido]-2,2-di methyl-3,4-dihydro-2H-1-benzopyran-3-yl 2-[(propan-2-yl)amino]acetate hydrochloride] registered a solubility in data set [1] (pH 4.2, aqueous buffer) of more than 10000 µg/mL.

In data set [1] (pH 4.4, aqueous buffer), `CCCNCC(=O)O[C@H]1[C@@H](NC(=O)c2ccc(F)c(Cl)c2)c2cc(C(C)=O)ccc2OC1(C)C.Cl` [Example 10, (3S,4S)-6-Acetyl-4-[(3-chloro-4-fluorobenzene)amido]-2,2-di methyl-3,4-dihydro-2H-1-benzopyran-3-yl 2-(propylamino)acetate hydrochloride] yielded a solubility of more than 10000 µg/mL.

As to `CC(=O)c1ccc2c(c1)[C@H](NC(=O)c1ccc(F)c(Cl)c1)[C@H](OC(=O)CN)C(C)(C)O2` [Example 6, (3S,4S)-6-Acetyl-4-[(3-chloro-4-fluorobenzene)amido]-2,2-di methyl-3,4-dihydro-2H-1-benzopyran-3-yl 2-aminoacetate hydrochloride], the solubility in data set [1] (aqueous buffer, pH 4.0) was more than 20000 µg/mL.

The molecule `CC(=O)c1ccc2c(c1)[C@H](NC(=O)c1ccc(F)c(Cl)c1)[C@H](OC(=O)[C@@H](N)CC(C)C)C(C)(C)O2.Cl` [Example 9, (3S,4S)-6-Acetyl-4-[(3-chloro-4-fluorobenzene)amido]-2,2-di methyl-3,4-dihydro-2H-1-benzopyran-3-yl(2S)-2-amino-4-methylpentanoate hydrochloride] yielded a solubility in data set [1] (pH 2.7, aqueous buffer) of more than 5000 µg/mL.

Turning to `CNCC(=O)O[C@H]1[C@@H](NC(=O)c2ccc(F)c(Cl)c2)c2cc(C(C)=O)ccc2OC1(C)C` [Example 7, (3S,4S)-6-acetyl-4-[(3-chloro-4-fluorobenzene)amido]-2,2-di methyl-3,4-dihydro-2H-1-benzopyran-3-yl 2-(methylamino)acetate hydrochloride], in data set [1] (pH 4.4, aqueous buffer), the solubility was more than 20000 µg/mL.

Consider `CC(=O)OCO[C@H]1[C@@H](NC(=O)c2ccc(F)c(Cl)c2)c2cc(C(C)=O)ccc2OC1(C)C` [Example 4, {[(3S,4S)-6-Acetyl-4-[(3-chloro-4-fluorobenzene)amido]-2,2-dimethyl-3,4-dihydro-2H-1-benzopyran-3-yl]oxy}methyl acetate], for which the solubility in data set [1] (pH 3.5, aqueous buffer) is less than 250 µg/mL.
